Reference: the supplement of paper PMC8149375

Key:
Settings in all cases: treatment: drug alone; 5 days
A498 [1] = assay: minimum viability across doses, drug alone, relative to DMSO (fraction); higher = less growth inhibition
Description: (§1)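 Primary HTS: 8 RCC cell lines treated with 8 doses (up to 10 uM) of each library drug alone for 5 days; viability read by CellTiter-Glo and normalised to DMSO. GI50 was fitted with XLfit (4-parameter), AUC is the area under the dose-response curve, and minimum viability is the lowest fraction of DMSO viability across doses.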

CAKI-1 [2] = assay: as above
Description: as §1

ACHN [3] = assay: as above
Description: as §1

UO-31 [4] = assay: as above
Description: as §1

SN12C [5] = assay: as above
Description: as §1

786-O [6] = assay: as above
Description: as §1

TK-10 [7] = assay: as above
Description: as §1

769-P [8] = assay: as above
Description: as §1

A498 [9] = assay: GI50, drug alone; higher = less potent
Description: as §1

CAKI-1 [10] = assay: GI50, drug alone; higher = less potent
Description: as §1

ACHN [11] = assay: GI50, drug alone; higher = less potent
Description: as §1

UO-31 [12] = assay: GI50, drug alone; higher = less potent
Description: as §1

SN12C [13] = assay: GI50, drug alone; higher = less potent
Description: as §1

786-O [14] = assay: GI50, drug alone; higher = less potent
Description: as §1

TK-10 [15] = assay: GI50, drug alone; higher = less potent
Description: as §1

769-P [16] = assay: GI50, drug alone; higher = less potent
Description: as §1

A498 [17] = assay: AUC of dose-response viability curve, drug alone (arbitrary (AUC of normalised viability)); higher = less growth inhibition
Description: as §1

CAKI-1 [18] = assay: as above
Description: as §1

ACHN [19] = assay: as above
Description: as §1

UO-31 [20] = assay: as above
Description: as §1

SN12C [21] = assay: as above
Description: as §1

786-O [22] = assay: as above
Description: as §1

TK-10 [23] = assay: as above
Description: as §1

769-P [24] = assay: as above
Description: as §1

| Compound | GI50, drug alone (ACHN [11]) [µM] | GI50, drug alone (786-O [14]) [µM] | minimum viability across doses (A498 [1]) | minimum viability across doses (CAKI-1 [2]) | minimum viability across doses (ACHN [3]) | minimum viability across doses (UO-31 [4]) | minimum viability across doses (SN12C [5]) | minimum viability across doses (786-O [6]) | minimum viability across doses (TK-10 [7]) | minimum viability across doses (769-P [8]) | GI50, drug alone (A498 [9]) [µM] | GI50, drug alone (CAKI-1 [10]) [µM] | GI50, drug alone (UO-31 [12]) [µM] | GI50, drug alone (SN12C [13]) [µM] | GI50, drug alone (TK-10 [15]) [µM] | GI50, drug alone (769-P [16]) [µM] | AUC of dose-response viability curve (A498 [17]) | AUC of dose-response viability curve (CAKI-1 [18]) | AUC of dose-response viability curve (ACHN [19]) | AUC of dose-response viability curve (UO-31 [20]) | AUC of dose-response viability curve (SN12C [21]) | AUC of dose-response viability curve (786-O [22]) | AUC of dose-response viability curve (TK-10 [23]) | AUC of dose-response viability curve (769-P [24]) |
| --- | --- | --- | --- | --- | --- | --- | --- | --- | --- | --- | --- | --- | --- | --- | --- | --- | --- | --- | --- | --- | --- | --- | --- | --- |
| CC(C)(C)c1cc(/C=C(\C#N)C(N)=S)cc(C(C)(C)C)c1O [Tyrphostin AG 879 (AG 879)] | > 10 | < 0.003 | 1.02 | 0.712 | 0.78 | 1.28 | 0.787 | 0.257 | 0.748 | 0.91 | > 10 | > 10 | > 10 | > 10 | > 10 | > 10 | 4.17 | 3.62 | 3.12 | 5.27 | 3.11 | 1.6 | 2.95 | 3.56 |
| CCO.N#CC(=C(/N)Sc1ccccc1N)/C(C#N)=C(\N)Sc1ccccc1N [U0126-EtOH] | > 10 | > 10 | 0.913 | 0.564 | 0.646 | 0.943 | 0.901 | 0.576 | 0.656 | 0.806 | > 10 | > 10 | > 10 | > 10 | > 10 | > 10 | 3.94 | 3.35 | 3.17 | 4 | 3.49 | 2.86 | 2.95 | 3.3 |
| Cc1cc(Nc2cc(N3CCN(C)CC3)nc(Sc3ccc(NC(=O)C4CC4)cc3)n2)n[nH]1 [VX-680 (MK-0457, Tozasertib)] | 0.725 | 0.159 | 0.254 | 0.241 | 0.214 | 0.577 | 0.2 | 0.133 | 0.548 | 0.386 | 3.2 | 1.25 | > 10 | 1.48 | > 10 | 2.93 | 3.1 | 2.54 | 2.35 | 3.24 | 2.57 | 1.85 | 2.96 | 2.67 |
| c1cncc(CN2CCC(n3ncc4c(N5CCOCC5)nc(-c5ccc6[nH]ccc6c5)nc43)CC2)c1 [WAY-600] | 0.689 | 0.372 | 0.0996 | 0.0276 | 0.0599 | 0.00348 | 0.164 | 0.00124 | 0.0825 | 0.0444 | 5.84 | 0.624 | 1.15 | 1.9 | 0.744 | 2.04 | 4.54 | 2.23 | 2.32 | 3.04 | 2.51 | 1.79 | 2.23 | 2.73 |

Now from value to compound, other results behind:

| GI50, drug alone (ACHN [11]) [µM] | GI50, drug alone (786-O [14]) [µM] | Compound | minimum viability across doses (A498 [1]) | minimum viability across doses (CAKI-1 [2]) | minimum viability across doses (ACHN [3]) | minimum viability across doses (UO-31 [4]) | minimum viability across doses (SN12C [5]) | minimum viability across doses (786-O [6]) | minimum viability across doses (TK-10 [7]) | minimum viability across doses (769-P [8]) | GI50, drug alone (A498 [9]) [µM] | GI50, drug alone (CAKI-1 [10]) [µM] | GI50, drug alone (UO-31 [12]) [µM] | GI50, drug alone (SN12C [13]) [µM] | GI50, drug alone (TK-10 [15]) [µM] | GI50, drug alone (769-P [16]) [µM] | AUC of dose-response viability curve (A498 [17]) | AUC of dose-response viability curve (CAKI-1 [18]) | AUC of dose-response viability curve (ACHN [19]) | AUC of dose-response viability curve (UO-31 [20]) | AUC of dose-response viability curve (SN12C [21]) | AUC of dose-response viability curve (786-O [22]) | AUC of dose-response viability curve (TK-10 [23]) | AUC of dose-response viability curve (769-P [24]) |
| --- | --- | --- | --- | --- | --- | --- | --- | --- | --- | --- | --- | --- | --- | --- | --- | --- | --- | --- | --- | --- | --- | --- | --- | --- |
| 0.0331 | 0.0551 | CCC(=O)N1CCN(c2ccc(-n3c(=O)ccc4cnc5ccc(-c6cnc7ccccc7c6)cc5c43)cc2C(F)(F)F)CC1 [Torin 1] | 0.0183 | 0.0409 | 0.0432 | 0.00725 | 0.127 | 0.0473 | 0.116 | 0.101 | 0.0888 | 0.057 | 0.0767 | 0.0872 | > 10 | 0.0719 | 1.81 | 1.32 | 1.13 | 1.71 | 1.56 | 1.39 | 1.33 | 1.54 |
| > 10 | > 10 | NC(=O)c1ccc(N(C(N)=O)c2c(F)cccc2F)nc1-c1ccc(F)cc1F [VX-702] | 0.924 | 0.76 | 0.656 | 0.806 | 0.944 | 0.661 | 0.674 | 0.946 | > 10 | > 10 | > 10 | > 10 | > 10 | > 10 | 3.72 | 3.27 | 3.03 | 3.75 | 3.56 | 2.9 | 2.79 | 3.44 |
| 1.57 | > 10 | COc1cc2c(Nc3ccc(Br)cc3F)ncnc2cc1OCC1CCN(C)CC1 [Vandetanib (Zactima)] | 0.68 | 0.265 | 0.133 | 0.162 | 0.507 | 0.532 | 0.166 | 0.324 | > 10 | 5.12 | 9.07 | > 10 | 1.8 | 5.26 | 3.29 | 3.12 | 2.6 | 4.05 | 3.2 | 2.98 | 2.58 | 2.88 |
| > 10 | > 10 | Cl.Cl.Clc1ccc(Nc2nnc(Cc3ccncc3)c3ccccc23)cc1 [Vatalanib dihydrochloride (PTK787)] | 0.933 | 0.807 | 0.587 | 1.11 | 0.901 | 0.692 | 0.887 | 1.01 | > 10 | > 10 | > 10 | > 10 | > 10 | > 10 | 4.65 | 3.48 | 2.59 | 4.41 | 3.4 | 3.3 | 3.41 | 3.69 |
| > 10 | 5.39 | CCCS(=O)(=O)Nc1ccc(F)c(C(=O)c2c[nH]c3ncc(-c4ccc(Cl)cc4)cc23)c1F [Vemurafenib (PLX4032)] | 0.93 | 0.76 | 0.634 | 0.7 | 0.764 | 0.271 | 0.647 | 0.884 | > 10 | > 10 | > 10 | > 10 | > 10 | > 10 | 3.73 | 3.43 | 3.08 | 3.42 | 3.05 | 2.45 | 3.05 | 2.31 |
